The results in this text go back to patent publication US10669272B2, “Substituted naphthyridinone compounds useful as T cell activators” (BRISTOL-MYERS SQUIBB COMPANY, priority 2018, dated 2020).

The target in test [1] is T1, human DGKα (Homo sapiens, UniProt P23743).
T1 construct: TVMV protease cleavage site (C); Hexa-His (C); made in house; host or cells: Sf9 insect cells (baculovirus, Bac-to-Bac)
The test can be described thus: DGKα LIPGLO assay (extruded liposome substrate), in vitro DGK inhibition. It counts as biochemical. As to conditions: read-out: DGKa LIPGLO IC50.

Test [2] addresses T2, human DGKζ (Homo sapiens, UniProt Q13574).
T2 construct: TVMV protease cleavage site (C); Hexa-His (C); made in house; host or cells: Sf9 insect cells (baculovirus, Bac-to-Bac)
As to the kind of experiment: DGKζ LIPGLO assay (extruded liposome substrate), in vitro DGK inhibition. It is filed as biochemical. The note with it: read-out: DGKz LIPGLO IC50.

The subject of test [3] is naïve human CD8 T cells. The test can be described thus: Human CD8 T cells IFN-γ assay.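 Also: Naïve human CD8 T cells stimulated with plate-bound anti-CD3 and soluble anti-CD28, IFN-γ in supernatant quantified by AlphaLISA and converted to pg/mL.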 It counts as cell-based. As to conditions: read-out: HuCD8 INFG Normalized EC50.
The subject of test [4] is Human venous whole blood. The test can be described thus: Human whole blood IFN-γ assay.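 Also: blood from healthy donors exposed to compound for 1 h before stimulation with anti-CD3 and anti-CD28 at 1 µg/mL each, IFN-γ quantified in supernatant by AlphaLISA.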 It counts as cell-based. The note with it: human whole blood, read-out: INFg Whole Blood Normalized Agonist EC50.
Experimental: Human Whole Blood IFN-γ Assay
Human venous whole blood (22.5 μL per well), obtained from healthy donors, was pre-treated with compounds for one hour at 37° C. in a humidified 95% air/5% CO2 incubator. The blood was stimulated with 2.5 μL anti-human CD3 and anti-CD28 mAb at a final concentration of 1 μg/mL each for 24 hours at 37° C. IFN-γ in the supernatants was measured using AlphLISA kit (Cat # AL217).
Where [5] appears, read: Homo sapiens, T-cell, 20 h, normalized to 3 μM reference compound with anti-CD3 plus anti-CD28 as 100% activation.
Where [6] appears, read: Homo sapiens, 24 h, normalized to 3 μM reference compound with anti-CD3 plus anti-CD28 as 100% activation.
[7] abbreviates: normalized to 3 μM reference compound with anti-CD3 plus anti-CD28 as 100% activation.

Read-outs that look alike come from different tables or passages of the source.

T1 sequence (P23743 with tags, fused parts or gaps): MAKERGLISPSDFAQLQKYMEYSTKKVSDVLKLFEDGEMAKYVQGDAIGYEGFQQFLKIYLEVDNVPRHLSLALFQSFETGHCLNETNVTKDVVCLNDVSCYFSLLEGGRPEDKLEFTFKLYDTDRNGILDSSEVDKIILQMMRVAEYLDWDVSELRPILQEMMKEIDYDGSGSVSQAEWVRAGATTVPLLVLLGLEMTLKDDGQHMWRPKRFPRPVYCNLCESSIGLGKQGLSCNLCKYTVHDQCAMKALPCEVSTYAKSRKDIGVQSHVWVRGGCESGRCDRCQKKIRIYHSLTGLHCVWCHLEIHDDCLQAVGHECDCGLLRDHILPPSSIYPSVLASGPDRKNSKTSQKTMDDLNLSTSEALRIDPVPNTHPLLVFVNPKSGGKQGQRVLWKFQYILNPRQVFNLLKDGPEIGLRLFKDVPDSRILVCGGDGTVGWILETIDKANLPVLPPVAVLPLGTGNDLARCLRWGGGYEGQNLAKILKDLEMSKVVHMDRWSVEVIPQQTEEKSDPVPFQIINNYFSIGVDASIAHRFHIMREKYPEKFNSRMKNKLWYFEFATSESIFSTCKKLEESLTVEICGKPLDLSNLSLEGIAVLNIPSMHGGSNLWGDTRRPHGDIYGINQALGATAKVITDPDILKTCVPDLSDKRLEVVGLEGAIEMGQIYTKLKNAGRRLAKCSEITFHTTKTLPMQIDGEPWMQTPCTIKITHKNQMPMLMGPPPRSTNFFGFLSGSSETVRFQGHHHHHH
T2 sequence (Q13574 with tags, fused parts or gaps isoform Q13574-4): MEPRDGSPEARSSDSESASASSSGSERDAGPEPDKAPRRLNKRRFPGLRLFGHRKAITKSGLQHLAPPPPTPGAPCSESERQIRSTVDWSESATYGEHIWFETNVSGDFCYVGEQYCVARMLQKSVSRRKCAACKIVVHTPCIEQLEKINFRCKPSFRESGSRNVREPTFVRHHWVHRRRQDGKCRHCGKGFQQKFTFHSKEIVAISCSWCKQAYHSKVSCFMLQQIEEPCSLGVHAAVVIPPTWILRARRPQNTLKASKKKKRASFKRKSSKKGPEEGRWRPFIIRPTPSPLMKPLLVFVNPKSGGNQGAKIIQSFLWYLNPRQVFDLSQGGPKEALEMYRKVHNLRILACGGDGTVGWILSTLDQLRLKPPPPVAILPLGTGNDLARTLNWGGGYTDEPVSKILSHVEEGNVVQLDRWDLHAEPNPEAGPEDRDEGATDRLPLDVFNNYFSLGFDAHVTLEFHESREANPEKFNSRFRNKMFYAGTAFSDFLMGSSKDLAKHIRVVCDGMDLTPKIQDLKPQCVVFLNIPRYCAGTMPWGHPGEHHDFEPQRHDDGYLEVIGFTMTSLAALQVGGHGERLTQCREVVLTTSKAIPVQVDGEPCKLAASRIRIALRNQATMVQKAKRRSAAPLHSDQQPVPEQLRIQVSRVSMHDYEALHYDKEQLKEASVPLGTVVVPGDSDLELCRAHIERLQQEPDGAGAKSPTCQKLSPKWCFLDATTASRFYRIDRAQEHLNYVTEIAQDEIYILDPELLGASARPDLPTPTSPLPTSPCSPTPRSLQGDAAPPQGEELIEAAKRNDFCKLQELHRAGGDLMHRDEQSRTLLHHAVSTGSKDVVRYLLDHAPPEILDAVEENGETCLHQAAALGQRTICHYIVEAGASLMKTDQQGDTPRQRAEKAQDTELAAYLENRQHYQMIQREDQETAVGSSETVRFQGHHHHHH

For orientation: IC50 means the point on the concentration scale where inhibition reaches its midpoint. In general, EC50 refers to the midpoint of the concentration-response curve. As for `C[C@@H]1CN(c2cc(=O)n(C)c3ccc(C#N)nc23)[C@@H](C)CN1C(c1ccc(Cl)cc1)c1ccc2c(c1)OC(F)(F)O2` (single isomer, unassigned) [Example 657], the results for the concentration for half-maximal inhibition (IC50) in test [1] (liposome (LIPGLO) assay) and in test [2] (liposome (LIPGLO) assay) were 2400 nM and 1600 nM, respectively. The EC50 in test [3] (setting [5]) was 27 nM; in test [4] (setting [6]) it was 660 nM.

Consider `C[C@@H]1CN(c2cc(=O)n(C)c3ccc(C#N)nc23)[C@@H](C)CN1C(c1ccc(F)cc1)c1cc(F)cc(F)c1` (stereo partly drawn) [Example 289, 8-[(2S,5R)-4-[(3,5-difluorophenyl)(4-fluorophenyl)methyl]-2,5-dimethylpiperazin-1-yl]-5-methyl-6-oxo-5,6-dihydro-1,5-naphthyridine-2-carbonitrile], for which the IC50 was found to be 3000 nM in test [1] (liposome (LIPGLO) assay) and 760 nM in test [2] (liposome (LIPGLO) assay). Also, the half-maximal effective concentration (EC50) is 220 nM in test [3] (setting [5]) and 1000 nM in test [4] (setting [6]).

Regarding `Cc1ccc(C(c2ccc(F)cc2)N2C[C@H](C)N(c3cc(=O)n(C)c4ccc(C#N)nc34)C[C@H]2C)cc1` (stereo partly drawn) [Example 295, 8-[(2S,5R)-4-[(4-fluorophenyl)(4-methylphenyl)methyl]-2,5-dimethylpiperazin-1-yl]-5-methyl-6-oxo-5,6-dihydro-1,5-naphthyridine-2-carbonitrile], the IC50 in test [1] (liposome (LIPGLO) assay) was found to be 1800 nM; in test [2] (liposome (LIPGLO) assay), 1300 nM. The EC50 is 200 nM in test [3] (setting [5]) and 640 nM in test [4] (setting [6]).

In the case of `Cc1ccc(C(c2ccc(Cl)cn2)N2C[C@H](C)N(c3cc(=O)n(C)c4ccc(C#N)nc34)C[C@H]2C)cc1` (single isomer, unassigned) [Example 200], the IC50 in test [1] (liposome (LIPGLO) assay) was 61 nM; in test [2] (liposome (LIPGLO) assay), 200 nM. Also, the EC50 in test [3] (setting [7]) is 40 nM; in test [4] (setting [7]), 540 nM.

Regarding `C[C@@H]1CN(c2cc(=O)n(C)c3ccc(C#N)nc23)[C@@H](C)CN1Cc1c(F)ccc(F)c1Cl` [Example 266, 8-[(2S,5R)-4-[(2-chloro-3,6-difluorophenyl)methyl]-2,5-dimethylpiperazin-1-yl]-5-methyl-6-oxo-5,6-dihydro-1,5-naphthyridine-2-carbonitrile], the IC50 was 1400 nM in test [1] (liposome (LIPGLO) assay) and 2100 nM in test [2] (liposome (LIPGLO) assay). The values for the EC50 in test [3] (setting [5]) and in test [4] (setting [6]) were 1100 nM and 2800 nM, respectively.

As to `Cc1cccc(C(c2ccc(F)cc2)N2C[C@H](C)N(c3cc(=O)n(C)c4ccc(C#N)nc34)C[C@H]2C)n1` (single isomer, unassigned) [Example 203], the concentration for half-maximal inhibition (IC50) in test [1] (liposome (LIPGLO) assay) was found to be 190 nM; in test [2] (liposome (LIPGLO) assay) it was 29 nM. Further, the results for the EC50 in test [3] (setting [7]) and in test [4] (setting [7]) were 32 nM and 290 nM, respectively.

Consider `C[C@@H]1CN(c2cc(=O)n(C)c3ccc(C#N)nc23)[C@@H](C)CN1C(c1ccc(F)cc1)c1ccc(C(F)F)cc1` (single isomer, unassigned) [Example 666], for which the IC50 in test [1] (liposome (LIPGLO) assay) was 720 nM; in test [2] (liposome (LIPGLO) assay) it was 2000 nM. Moreover, the figures for the EC50 in test [3] (setting [7]) and in test [4] (setting [6]) were 5.6 nM and 920 nM, respectively.

With `C[C@@H]1CN(c2cc(=O)n(C)c3ccc(C#N)nc23)[C@@H](C)CN1Cc1c(Cl)cccc1Cl` [Example 263, 8-[(2S,5R)-4-[(2,6-dichlorophenyl)methyl]-2,5-dimethylpiperazin-1-yl]-5-methyl-6-oxo-5,6-dihydro-1,5-naphthyridine-2-carbonitrile], the IC50 in test [1] (liposome (LIPGLO) assay) stood at 6500 nM; in test [2] (liposome (LIPGLO) assay), 1700 nM. The EC50 stood at 610 nM in test [3] (setting [5]) and 6300 nM in test [4] (setting [6]).

On to `Cc1ccc(C(c2ccc(Cl)cn2)N2C[C@H](C)N(c3cc(=O)n(C)c4ccc(C#N)nc34)C[C@H]2C)cc1` (single isomer, unassigned) [Example 199], for which the IC50 in test [1] (liposome (LIPGLO) assay) and in test [2] (liposome (LIPGLO) assay) was 100 nM throughout. Also, the EC50 in test [3] (setting [5]) worked out at 61 nM; in test [4] (setting [7]) it was 250 nM.

Turning to `C[C@@H]1CN(c2cc(=O)n(C)c3ccc(C#N)nc23)[C@@H](C)CN1Cc1ccc(F)cc1` [Example 297, 8-[(2S,5R)-4-[(4-fluorophenyl)methyl]-2,5-dimethylpiperazin-1-yl]-5-methyl-6-oxo-5,6-dihydro-1,5-naphthyridine-2-carbonitrile], the IC50 in test [1] (liposome (LIPGLO) assay) is 15 nM; in test [2] (liposome (LIPGLO) assay), 740 nM. Moreover, the EC50 in test [3] (setting [5]) worked out at 490 nM; in test [4] (setting [6]), 1500 nM.

`CC(c1c(F)cccc1F)N1C[C@H](C)N(c2cc(=O)n(C)c3ccc(C#N)nc23)C[C@H]1C` (stereo partly drawn) [Example 256, 8-[(2S,5R)-4-[1-(2,6-difluorophenyl)ethyl]-2,5-dimethylpiperazin-1-yl]-5-methyl-6-oxo-5,6-dihydro-1,5-naphthyridine-2-carbonitrile]: the IC50 in test [1] (liposome (LIPGLO) assay) was 140 nM; in test [2] (liposome (LIPGLO) assay) it was 570 nM. Besides, the EC50 in test [3] (setting [5]) was 22 nM; in test [4] (Homo sapiens, normalized to 3 μM reference compound with anti-CD3 plus anti-CD28 as 100% activation) it was 650 nM.

Take `C[C@@H]1CN(c2cc(=O)n(C)c3ccc(C#N)nc23)[C@@H](C)CN1Cc1ccc(C#N)cc1F` [Example 253, 8-[(2S,5R)-4-[(4-cyano-2-fluorophenyl)methyl]-2,5-dimethylpiperazin-1-yl]-5-methyl-6-oxo-5,6-dihydro-1,5-naphthyridine-2-carbonitrile]: the IC50 stood at 200 nM in test [1] (liposome (LIPGLO) assay) and 690 nM in test [2] (liposome (LIPGLO) assay). For the same compound, the concentration giving a half-maximal response (EC50) was found to be 87 nM in test [3] (setting [5]) and 3000 nM in test [4] (setting [6]).

With `C[C@@H]1CN(c2cc(=O)n(C)c3ccc(C#N)nc23)[C@@H](C)CN1C(c1ccc(Cl)cc1)c1cccc2c1OCCO2` (stereo partly drawn) [Example 447, 8-((2S,5R)-4-((4-chlorophenyl)(2,3-dihydrobenzo[b][1,4]dioxin-5-yl)methyl)-2,5-dimethylpiperazin-1-yl)-5-methyl-6-oxo-5,6-dihydro-1,5-naphthyridine-2-carbonitrile], the IC50 in test [1] (liposome (LIPGLO) assay) amounted to 7700 nM; in test [2] (liposome (LIPGLO) assay), 290 nM. For the same compound, the figures for the half-maximal effective concentration (EC50) in test [3] (setting [5]) and in test [4] (setting [6]) were 50 nM and 600 nM, respectively.

On to `CCc1ccccc1C(c1ccc(F)cc1)N1C[C@H](C)N(c2cc(=O)n(C)c3ccc(OC)nc23)C[C@H]1C` (single isomer, unassigned) [Example 235], for which the values for the IC50 in test [1] (liposome (LIPGLO) assay) and in test [2] (liposome (LIPGLO) assay) were 81000 nM and 4800 nM, respectively. The EC50 in test [3] (setting [7]) was 1500 nM; in test [4] (setting [6]), 20000 nM.

For `C[C@@H]1CN(c2cc(=O)n(C)c3ccc(C#N)nc23)[C@@H](C)CN1C(c1ccc(Cl)cc1)c1ccc(Cl)cn1` (single isomer, unassigned) [Example 202], the IC50 in test [1] (liposome (LIPGLO) assay) was 110 nM; in test [2] (liposome (LIPGLO) assay), 490 nM. Also, the EC50 is 8.3 nM in test [3] (setting [7]) and 380 nM in test [4] (setting [7]).

`C[C@@H]1CN(c2c(C#N)c(=O)n(C)c3ccc(C#N)nc23)CCN1C(c1ccc(F)cc1)c1cccc(C(F)(F)F)n1` (single isomer, unassigned) [Example 922]: the IC50 amounted to 1500 nM in test [1] (DGKα liposome (LIPGLO) assay) and 780 nM in test [2] (DGKζ liposome (LIPGLO) assay). Also, the concentration for a half-maximal effect (EC50) in test [3] (Homo sapiens, T-cell, 20 h, naïve human CD8 T cells, anti-CD3 plus anti-CD28, 3 μM reference compound = 100% activation) was determined as 160 nM; in test [4] (anti-CD3 plus anti-CD28, 24 hours, 3 μM reference compound = 100% activation), 430 nM.

With `COC(=O)C1CN(c2c(C#N)c(=O)n(C)c3ccc(Br)nc23)CCN1C(c1ccc(F)cc1)c1ccc(F)cc1` (stereo not shown) [Example 49, Methyl 1-(bis(4-fluorophenyl)methyl)-4-(6-bromo-3-cyano-1-methyl-2-oxo-1,2-dihydro-1,5-naphthyridin-4-yl)piperazine-2-carboxylate], the IC50 worked out at 25000 nM in test [1] (liposome (LIPGLO) assay) and 8700 nM in test [2] (liposome (LIPGLO) assay). The results for the EC50 in test [3] (setting [5]) and in test [4] (setting [6]) were 490 nM and 6300 nM, respectively.

Regarding `C[C@@H]1CN(c2cc(=O)n(C)c3ccc(C#N)nc23)[C@@H](C)CN1C(c1ccc(F)cc1)c1nc(-c2ccc(F)cc2)no1` (single isomer, unassigned) [Example 741], the IC50 in test [1] (DGKα liposome (LIPGLO) assay) turned out to be 870 nM; in test [2] (DGKζ liposome (LIPGLO) assay) it was 1400 nM. Besides, the EC50 was 3.7 nM in test [3] (naïve human CD8 T cells, anti-CD3 plus anti-CD28, 3 μM reference compound = 100% activation) and 210 nM in test [4] (Homo sapiens, 24 h, anti-CD3 plus anti-CD28, 24 hours, 3 μM reference compound = 100% activation).

As to `Cc1ccc(C(c2ccc(Cl)cc2)N2C[C@H](C)N(c3cc(=O)n(C)c4ccc(C#N)nc34)C[C@H]2C)nc1` (single isomer, unassigned) [Example 213], the concentration for half-maximal inhibition (IC50) in test [1] (liposome (LIPGLO) assay) was 360 nM; in test [2] (liposome (LIPGLO) assay), 790 nM. Moreover, the EC50 in test [3] (setting [7]) amounted to 1100 nM; in test [4] (setting [6]), 460 nM.

In the case of `COc1cc(F)ccc1C(N1C[C@H](C)N(c2cc(=O)n(C)c3ccc(C#N)nc23)C[C@H]1C)C(C)(C)C` (single isomer, unassigned) [Example 186], the results for the IC50 in test [1] (liposome (LIPGLO) assay) and in test [2] (liposome (LIPGLO) assay) were 3300 nM and 14000 nM, respectively. For the same compound, the results for the EC50 in test [3] (setting [7]) and in test [4] (setting [7]) were 10000 nM and 20000 nM, respectively.

With `CC[C@H]1CN(C(c2ccc(Cl)cc2)c2ccc(F)cn2)[C@H](CC)CN1c1cc(=O)n(C)c2ccc(C#N)nc12` (single isomer, unassigned) [Example 1034], the values for the IC50 in test [1] (liposome (LIPGLO) assay) and in test [2] (liposome (LIPGLO) assay) were 64 nM and 340 nM, respectively. The values for the EC50 in test [3] (setting [7]) and in test [4] (setting [7]) were 17 nM and 230 nM, respectively.

Take `CCc1cc(F)ccc1C(c1ccc(F)cc1)N1C[C@H](C)N(c2cc(=O)n(C)c3ccc(C#N)nc23)C[C@H]1C` (single isomer, unassigned) [Example 227]: the IC50 in test [1] (liposome (LIPGLO) assay) was above 250000 nM; in test [2] (liposome (LIPGLO) assay), 1000 nM. The 50% effective concentration (EC50) in test [3] (setting [5]) stood at 16 nM; in test [4] (setting [7]), 13000 nM.
